Legend:
Test in all cases: relative viability (nuclei count vs DMSO), 5 days (fraction); higher = more cells survive
[1] = compound: CCN1C(=O)C2=CC(=C(N=C2N(C1=O)C3CC3)N)C(=O)N + C[C@]1(O)C[C@@H](c2nc(-c3ccc4ccc(-c5ccccc5)nc4c3)c3c(N)nccn32)C1 [Linsitinib] (partner 1 µM)
Procedure, shortened: (§1)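 One day after seeding in 1536-well plates, lung cancer cell lines were dosed by pin tool. Dosing was either single-drug or a fixed anchor-drug dose plus five library-drug doses (not always all listed) in √10 steps. After 5 days, nuclei were stained in one fix-and-stain step and counted on 4× images, and relative viability is the nuclei count of treated wells over that of vehicle wells, given as the median of duplicate plates.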

[2] = compound: CCN1C(=O)C2=CC(=C(N=C2N(C1=O)C3CC3)N)C(=O)N + C[C@@H](Oc1cc(-c2cnn(C3CCNCC3)c2)cnc1N)c1c(Cl)ccc(F)c1Cl [Crizotinib] (partner 1 µM)
Procedure, shortened: as §1

[3] = compound: CCN1C(=O)C2=CC(=C(N=C2N(C1=O)C3CC3)N)C(=O)N + COc1cc2c(Oc3ccc(NC(=O)C4(C(=O)Nc5ccc(F)cc5)CC4)cc3F)ccnc2cc1OCCCN1CCOCC1 [Foretinib] (partner 0.25 µM)
Procedure, shortened: as §1

[4] = compound: CCN1C(=O)C2=CC(=C(N=C2N(C1=O)C3CC3)N)C(=O)N + Cc1nc(NC(=O)N2CCC[C@H]2C(N)=O)sc1-c1ccnc(C(C)(C)C(F)(F)F)c1 [Alpelisib] (partner 2 µM)
Procedure, shortened: as §1

[5] = compound: CCN1C(=O)C2=CC(=C(N=C2N(C1=O)C3CC3)N)C(=O)N + CS(=O)(=O)N1CCN(Cc2cc3nc(-c4cccc5[nH]ncc45)nc(N4CCOCC4)c3s2)CC1 [Pictilisib] (partner 1 µM)
Procedure, shortened: as §1

[6] = compound: CCN1C(=O)C2=CC(=C(N=C2N(C1=O)C3CC3)N)C(=O)N + CC(C)C[C@H](NC(=O)[C@H](Cc1ccccc1)NC(=O)c1cnccn1)B(O)O [Bortezomib] (partner 0.002 µM)
Procedure, shortened: as §1

[7] = compound: CCN1C(=O)C2=CC(=C(N=C2N(C1=O)C3CC3)N)C(=O)N + CC1(C)CCC(c2ccc(Cl)cc2)=C(CN2CCN(c3ccc(C(=O)NS(=O)(=O)c4ccc(N[C@H](CCN5CCOCC5)CSc5ccccc5)c(S(=O)(=O)C(F)(F)F)c4)cc3)CC2)C1 [Navitoclax] (partner 0.5 µM)
Procedure, shortened: as §1

[8] = compound: CCN1C(=O)C2=CC(=C(N=C2N(C1=O)C3CC3)N)C(=O)N + NC(=O)Nc1cc(-c2cccc(F)c2)sc1C(=O)N[C@H]1CCCNC1 [AZD7762] (partner 0.2 µM)
Procedure, shortened: as §1

[9] = compound: CCN1C(=O)C2=CC(=C(N=C2N(C1=O)C3CC3)N)C(=O)N + CS(=O)(=O)CCNCc1ccc(-c2ccc3ncnc(Nc4ccc(OCc5cccc(F)c5)c(Cl)c4)c3c2)o1 [Lapatinib] (partner 2 µM)
Procedure, shortened: as §1

[10] = compound: CCN1C(=O)C2=CC(=C(N=C2N(C1=O)C3CC3)N)C(=O)N + O=C(c1cc(Cc2n[nH]c(=O)c3ccccc23)ccc1F)N1CCN(C(=O)C2CC2)CC1 [Olaparib] (partner 8 µM)
Procedure, shortened: as §1

[11] = compound: CCN1C(=O)C2=CC(=C(N=C2N(C1=O)C3CC3)N)C(=O)N
Procedure, shortened: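 Lung cancer cell lines in 1536-well plates were kept overnight at 37 °C, then pinned with five library-drug doses (not always all listed) spaced by √10 on vehicle-anchored plates. After 5 days without medium change, cells were fixed, permeabilised and Hoechst-stained in one step, imaged at 4×, and nuclei were counted with MetaXpress. Viability is treated-well nuclei divided by vehicle-well nuclei, taken as the median over plates. Plates passed only with control CV below 25% and at least one doubling.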

[12] = compound: CCN1C(=O)C2=CC(=C(N=C2N(C1=O)C3CC3)N)C(=O)N + Cc1nc(Nc2ncc(C(=O)Nc3c(C)cccc3Cl)s2)cc(N2CCN(CCO)CC2)n1 [Dasatinib] (partner 0.075 µM)
Procedure, shortened: as §1

[13] = compound: CCN1C(=O)C2=CC(=C(N=C2N(C1=O)C3CC3)N)C(=O)N + Nc1nc2[nH]cc(CCc3ccc(C(=O)N[C@@H](CCC(=O)O)C(=O)O)cc3)c2c(=O)[nH]1 [Pemetrexed] (partner 0.2 µM)
Procedure, shortened: as §1

[14] = compound: CCN1C(=O)C2=CC(=C(N=C2N(C1=O)C3CC3)N)C(=O)N + CC(=O)Nc1cccc(-n2c(=O)n(C3CC3)c(=O)c3c(Nc4ccc(I)cc4F)n(C)c(=O)c(C)c32)c1 [Trametinib] (partner 0.02 µM)
Procedure, shortened: as §1

[15] = compound: CCN1C(=O)C2=CC(=C(N=C2N(C1=O)C3CC3)N)C(=O)N + O=C(CCCCCCC(=O)Nc1ccccc1)NO [Vorinostat] (partner 1 µM)
Procedure, shortened: as §1

[16] = compound: CCN1C(=O)C2=CC(=C(N=C2N(C1=O)C3CC3)N)C(=O)N + CCNC(=O)c1noc(-c2cc(C(C)C)c(O)cc2O)c1-c1ccc(CN2CCOCC2)cc1 [Luminespib] (partner 0.01 µM)
Procedure, shortened: as §1

[17] = compound: CCN1C(=O)C2=CC(=C(N=C2N(C1=O)C3CC3)N)C(=O)N + Cc1cc(Nc2cc(N3CCN(C)CC3)nc(Sc3ccc(NC(=O)C4CC4)cc3)n2)n[nH]1 [Tozasertib] (partner 0.1 µM)
Procedure, shortened: as §1

[18] = compound: CCN1C(=O)C2=CC(=C(N=C2N(C1=O)C3CC3)N)C(=O)N + Nc1ncn([C@H]2C[C@H](O)[C@@H](CO)O2)c(=O)n1 [Decitabine] (partner 2 µM)
Procedure, shortened: as §1

[19] = compound: CCN1C(=O)C2=CC(=C(N=C2N(C1=O)C3CC3)N)C(=O)N + COc1cccc2cc(-c3nc([C@H]4CC[C@H](C(=O)O)CC4)n4ncnc(N)c34)[nH]c12 [OSI-027] (partner 0.5 µM)
Procedure, shortened: as §1

[20] = compound: CCN1C(=O)C2=CC(=C(N=C2N(C1=O)C3CC3)N)C(=O)N + N=C(N)NC(=N)NCCc1ccccc1 [Phenformin] (partner 250 µM)
Procedure, shortened: as §1

[21] = compound: CCN1C(=O)C2=CC(=C(N=C2N(C1=O)C3CC3)N)C(=O)N + CC(=O)c1c(C)c2cnc(Nc3ccc(N4CCNCC4)cn3)nc2n(C2CCCC2)c1=O [Palbociclib] (partner 0.5 µM)
Procedure, shortened: as §1

## NCI-H1703
[1]; first compound 0.253 µM
  relative viability: 0.852
[1]; first compound 0.8 µM
  relative viability: 1.12
[1]; first compound 2.53 µM
  relative viability: 0.853
[1]; first compound 8 µM
  relative viability: 0.6
[2]; first compound 0.253 µM
  relative viability: 0.718
[2]; first compound 0.8 µM
  relative viability: 0.727
[2]; first compound 2.53 µM
  relative viability: 0.565
[2]; first compound 8 µM
  relative viability: 1.04
[3]; first compound 0.253 µM
  relative viability: 0.393
[3]; first compound 0.8 µM
  relative viability: 0.432
[3]; first compound 2.53 µM
  relative viability: 0.328
[3]; first compound 8 µM
  relative viability: 0.372
[4]; first compound 0.253 µM
  relative viability: 0.339
[4]; first compound 0.8 µM
  relative viability: 0.342
[4]; first compound 2.53 µM
  relative viability: 0.31
[4]; first compound 8 µM
  relative viability: 0.368
[5]; first compound 0.253 µM
  relative viability: 0.243
[5]; first compound 0.8 µM
  relative viability: 0.224
[5]; first compound 2.53 µM
  relative viability: 0.275
[5]; first compound 8 µM
  relative viability: 0.269
[6]; first compound 0.253 µM
  relative viability: 0.384
[6]; first compound 0.8 µM
  relative viability: 0.383
[6]; first compound 2.53 µM
  relative viability: 0.34
[6]; first compound 8 µM
  relative viability: 0.374
[7]; first compound 0.253 µM
  relative viability: 1.01
[7]; first compound 0.8 µM
  relative viability: 1.04
[7]; first compound 2.53 µM
  relative viability: 1.14
[7]; first compound 8 µM
  relative viability: 1.46
[8]; first compound 0.253 µM
  relative viability: 0.13
[8]; first compound 0.8 µM
  relative viability: 0.126
[8]; first compound 2.53 µM
  relative viability: 0.164
[8]; first compound 8 µM
  relative viability: 0.137
[9]; first compound 0.253 µM
  relative viability: 1.01
[9]; first compound 0.8 µM
  relative viability: 0.946
[9]; first compound 2.53 µM
  relative viability: 1.09
[9]; first compound 8 µM
  relative viability: 1.43
[10]; first compound 0.253 µM
  relative viability: 0.702
[10]; first compound 0.8 µM
  relative viability: 0.616
[10]; first compound 2.53 µM
  relative viability: 0.384
[10]; first compound 8 µM
  relative viability: 0.379
[11]; 0.253 µM
  relative viability: 0.953
[11]; 0.8 µM
  relative viability: 0.871
[11]; 2.53 µM
  relative viability: 0.886
[11]; 8 µM
  relative viability: 1.07

## NCI-H2342
[12]; first compound 0.253 µM
  relative viability: 0.27
[12]; first compound 0.8 µM
  relative viability: 0.294
[12]; first compound 2.53 µM
  relative viability: 0.349
[12]; first compound 8 µM
  relative viability: 0.323
[13]; first compound 0.253 µM
  relative viability: 0.781
[13]; first compound 0.8 µM
  relative viability: 0.746
[13]; first compound 2.53 µM
  relative viability: 0.802
[13]; first compound 8 µM
  relative viability: 0.817
[14]; first compound 0.253 µM
  relative viability: 0.795
[14]; first compound 0.8 µM
  relative viability: 0.8
[14]; first compound 2.53 µM
  relative viability: 0.756
[14]; first compound 8 µM
  relative viability: 0.857
[3]; first compound 0.253 µM
  relative viability: 1.08
[3]; first compound 0.8 µM
  relative viability: 0.941
[3]; first compound 2.53 µM
  relative viability: 1.1
[3]; first compound 8 µM
  relative viability: 1.03
[15]; first compound 0.253 µM
  relative viability: 0.719
[15]; first compound 0.8 µM
  relative viability: 0.812
[15]; first compound 2.53 µM
  relative viability: 0.817
[15]; first compound 8 µM
  relative viability: 0.645
[16]; first compound 0.253 µM
  relative viability: 0.756
[16]; first compound 0.8 µM
  relative viability: 0.761
[16]; first compound 2.53 µM
  relative viability: 0.747
[16]; first compound 8 µM
  relative viability: 0.784
[8]; first compound 0.253 µM
  relative viability: 0.527
[8]; first compound 0.8 µM
  relative viability: 0.426
[8]; first compound 2.53 µM
  relative viability: 0.514
[8]; first compound 8 µM
  relative viability: 0.503
[17]; first compound 0.253 µM
  relative viability: 0.512
[17]; first compound 0.8 µM
  relative viability: 0.533
[17]; first compound 2.53 µM
  relative viability: 0.544
[17]; first compound 8 µM
  relative viability: 0.54
[18]; first compound 0.253 µM
  relative viability: 0.642
[18]; first compound 0.8 µM
  relative viability: 0.729
[18]; first compound 2.53 µM
  relative viability: 0.701
[18]; first compound 8 µM
  relative viability: 0.766
[19]; first compound 0.253 µM
  relative viability: 0.612
[19]; first compound 0.8 µM
  relative viability: 0.568
[19]; first compound 2.53 µM
  relative viability: 0.704
[19]; first compound 8 µM
  relative viability: 0.524
[20]; first compound 0.253 µM
  relative viability: 0.556
[20]; first compound 0.8 µM
  relative viability: 0.547
[20]; first compound 2.53 µM
  relative viability: 0.666
[20]; first compound 8 µM
  relative viability: 0.532
[21]; first compound 0.253 µM
  relative viability: 0.549
[21]; first compound 0.8 µM
  relative viability: 0.533
[21]; first compound 2.53 µM
  relative viability: 0.426
[21]; first compound 8 µM
  relative viability: 0.461
[10]; first compound 0.253 µM
  relative viability: 0.42
[10]; first compound 0.8 µM
  relative viability: 0.467
[10]; first compound 2.53 µM
  relative viability: 0.421
[10]; first compound 8 µM
  relative viability: 0.492
[11]; 0.253 µM
  relative viability: 1.04
[11]; 0.8 µM
  relative viability: 0.821
[11]; 2.53 µM
  relative viability: 0.907
[11]; 8 µM
  relative viability: 0.948

Source: the supplement of paper PMC10307832
